Source: ChEMBL document CHEMBL1136059 (Bioorg Med Chem Lett, 2002)

How the values were obtained:
[1] = biological target: T1, Prostaglandin G/H synthase 2 (Homo sapiens, UniProt P35354); assay type: functional
T1 sequence (P35354 whole entry): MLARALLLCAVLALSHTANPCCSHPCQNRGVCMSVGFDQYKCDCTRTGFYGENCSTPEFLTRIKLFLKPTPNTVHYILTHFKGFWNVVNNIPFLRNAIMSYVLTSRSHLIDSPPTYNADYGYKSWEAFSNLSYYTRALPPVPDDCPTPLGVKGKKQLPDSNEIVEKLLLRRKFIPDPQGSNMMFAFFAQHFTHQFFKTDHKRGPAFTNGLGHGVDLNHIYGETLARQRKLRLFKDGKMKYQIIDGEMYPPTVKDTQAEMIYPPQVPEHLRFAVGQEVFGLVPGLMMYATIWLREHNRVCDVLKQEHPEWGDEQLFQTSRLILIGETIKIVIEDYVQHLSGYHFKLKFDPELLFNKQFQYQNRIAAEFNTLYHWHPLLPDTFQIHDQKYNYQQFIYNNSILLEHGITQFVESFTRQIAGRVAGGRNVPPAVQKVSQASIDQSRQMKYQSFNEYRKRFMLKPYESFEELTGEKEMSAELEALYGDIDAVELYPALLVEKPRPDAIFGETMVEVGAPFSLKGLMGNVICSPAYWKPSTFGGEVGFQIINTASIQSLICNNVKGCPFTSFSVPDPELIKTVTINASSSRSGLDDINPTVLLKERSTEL

[2] = biological target: T2, Prostaglandin G/H synthase 1 (Homo sapiens, UniProt P23219); experiment: In vitro inhibition of cyclooxygenase-1 via inhibition of TXB2 generation in the presence of 1 uM arachidonic acid in human platelets at concentration of 10 uM; assay type: functional
T2 sequence (P23219 whole entry): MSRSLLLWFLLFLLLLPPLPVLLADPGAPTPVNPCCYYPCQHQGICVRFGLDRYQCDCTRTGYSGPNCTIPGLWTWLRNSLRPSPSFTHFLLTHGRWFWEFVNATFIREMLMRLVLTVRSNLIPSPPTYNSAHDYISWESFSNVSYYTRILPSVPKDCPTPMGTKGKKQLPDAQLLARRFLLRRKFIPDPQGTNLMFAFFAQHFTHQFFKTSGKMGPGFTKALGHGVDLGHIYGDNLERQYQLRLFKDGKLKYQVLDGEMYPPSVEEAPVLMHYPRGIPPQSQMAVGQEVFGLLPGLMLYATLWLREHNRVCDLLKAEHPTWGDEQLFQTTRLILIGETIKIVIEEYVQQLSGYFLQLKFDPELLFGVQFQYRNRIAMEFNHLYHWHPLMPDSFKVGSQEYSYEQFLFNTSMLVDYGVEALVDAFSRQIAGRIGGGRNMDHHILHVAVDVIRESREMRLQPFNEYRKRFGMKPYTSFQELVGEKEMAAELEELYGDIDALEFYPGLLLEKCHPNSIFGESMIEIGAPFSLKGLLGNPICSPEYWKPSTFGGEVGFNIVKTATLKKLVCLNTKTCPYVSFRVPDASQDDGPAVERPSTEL

[3] = biological target: T3, Prostaglandin G/H synthase 2 (Homo sapiens) (UniProt P35354); experiment: In vitro inhibition of cyclooxygenase-2 via inhibition of PGE-2 generation by LPS-stimulated monocytes isolated from human blood at concentration of 20 uM; assay type: functional
T3 sequence (whole entry): T1 sequence (P35354 whole entry)

[4] = biological target: T3, Prostaglandin G/H synthase 2 (Homo sapiens); experiment: In vitro inhibition of cyclooxygenase-2 via inhibition of PGE-2 generation by LPS-stimulated monocytes isolated from human blood at a concentration of 20 uM; assay type: functional
[5] = biological target: T2, Prostaglandin G/H synthase 1; assay type: functional
[6] = biological target: T2, Prostaglandin G/H synthase 1; experiment: In vitro inhibition of cyclooxygenase-1 via inhibition of TXB2 generation in the presence of 1 uM arachidonic acid in human platelets
[7] = biological target: T1, Prostaglandin G/H synthase 2; experiment: In vitro inhibition of cyclooxygenase-2 via inhibition of PGE-2 generation by LPS-stimulated monocytes isolated from human blood; inactive; assay type: functional
[8] = biological target: T2, Prostaglandin G/H synthase 1; experiment: Tested in vitro for inhibition of cyclooxygenase-1 in human blood assay; assay type: functional
[9] = biological target: T1, Prostaglandin G/H synthase 2; experiment: Tested in vitro for inhibition of cyclooxygenase-2 in human blood assay; assay type: functional
[10] = biological target: T2, Prostaglandin G/H synthase 1; experiment: In vitro inhibition of cyclooxygenase-1 via inhibition of TXB2 generation in the presence of 1 uM arachidonic acid in human platelets; assay type: functional
[11] = biological target: T3, Prostaglandin G/H synthase 2 (Homo sapiens); experiment: In vitro inhibition of cyclooxygenase-2 via inhibition of PGE-2 generation by LPS-stimulated monocytes isolated from human blood; assay type: functional
[12] = biological target: T2, Prostaglandin G/H synthase 1; experiment: In vitro inhibition of cyclooxygenase-1 via inhibition of TXB2 generation in the presence of 1 uM arachidonic acid in human platelet; assay type: functional

Question: What does the source list for `NS(=O)(=O)/C=C/c1ccc(C(=O)c2ccccc2)cc1CO`?
Answer: IC50 [1]: 8.4 µM; inhibition [2]: 25%

Question: What does the source list for `NS(=O)(=O)/C=C/c1ccccc1C(=O)c1ccccc1`?
Answer: inhibition [3]: 43%; inhibition [2]: 39%

Question: With `CCc1cc(/C=C/S(C)(=O)=O)cc(C(=O)c2ccccc2)c1` as the molecule, how does the inhibition [4] read?
Answer: Its inhibition is 40%.

Question: And the inhibition [2]?
Answer: The inhibition was 16%.

Question: For `CC(=O)c1cc(/C=C/S(N)(=O)=O)cc(C(=O)c2ccccc2)c1`, which IC50 [1] is on record?
Answer: The IC50 was 20 µM.

Question: And the IC50 [5]?
Answer: The IC50 was 6.4 µM.

Question: For `CCN(CC)Cc1cc(/C=C/S(N)(=O)=O)cc(C(=O)c2ccccc2)c1`, which IC50 [1] is on record?
Answer: The IC50 was 7.1 µM.

Question: Which inhibition [4] does the source give for `CN(C)C(=O)c1cc(/C=C/S(N)(=O)=O)cc(C(=O)c2ccccc2)c1` here?
Answer: The inhibition was 31%.

Question: For `CCc1cc(C(=O)c2ccccc2)ccc1/C=C/S(N)(=O)=O`, which IC50 [1] is on record?
Answer: Its IC50 is 5.6 µM.

Question: And the IC50 [6]?
Answer: The IC50 was 6.3 µM.

Question: Which IC50 [7] does the source give for `CS(=O)(=O)/C=C/c1cccc(C(=O)c2ccccc2)c1` here?
Answer: Its IC50 is “Not Active”.

Question: How did the inhibition [3] turn out when `CS(=O)(=O)/C=C/c1ccc(C(=O)c2ccccc2)cc1` was run?
Answer: Its inhibition is 6%.

Question: And the inhibition [2]?
Answer: Its inhibition is 14%.

Question: How did the inhibition [2] turn out when `CS(=O)(=O)c1ccc(C2=C(c3ccccc3)C(=O)OC2)cc1` was run?
Answer: The inhibition was 0%.

Question: Which IC50 [1] does the source give for `CCc1ccc(/C=C/S(N)(=O)=O)cc1C(=O)c1ccccc1` here?
Answer: The IC50 was 0.77 µM.

Question: And the IC50 [5]?
Answer: The IC50 was 0.2 µM.

Question: For `CCc1cc(/C=C/C(=O)O)cc(C(=O)c2ccccc2)c1`, which IC50 [1] is on record?
Answer: The IC50 was 2.6 µM.

Question: For `CCc1cc(/C=C/S(N)(=O)=O)cc(C(=O)c2ccccc2)c1`, which IC50 [8] is on record?
Answer: The IC50 was 100 µM.

Question: What about the IC50 [9] of the same molecule?
Answer: Its IC50 is 12 µM.

Question: And the IC50 [1]?
Answer: The IC50 was 0.2 µM.

Question: And the IC50 [5]?
Answer: Its IC50 is 18 µM.

Question: What does the source list for `N#Cc1cc(/C=C/S(N)(=O)=O)cc(C(=O)c2ccccc2)c1`?
Answer: IC50 [1]: 5.6 µM; IC50 [5]: 1.7 µM

Question: Which results are given for `Cc1ccc(/C=C/S(N)(=O)=O)cc1C(=O)c1ccccc1`?
Answer: inhibition [10]: 49%; IC50 [1]: 19 µM

Question: `CC(C(=O)O)c1cc(/C=C/S(C)(=O)=O)cc(C(=O)c2ccccc2)c1` (stereo not given) was tested. Which IC50 [1] did it give?
Answer: Its IC50 is 9.7 µM.

Question: `CCOC(=O)/C=C/c1cc(CC)cc(C(=O)c2ccccc2)c1` was tested. Which IC50 [1] did it give?
Answer: Its IC50 is 5 µM.

Question: What does the source list for `Cc1cc(C(=O)c2ccccc2)ccc1/C=C/S(N)(=O)=O`?
Answer: inhibition [3]: 14%; inhibition [2]: 0%

Question: How did the inhibition [11] turn out when `Cc1cc(/C=C/S(N)(=O)=O)ccc1C(=O)c1ccccc1` was run?
Answer: Its inhibition is 41%.

Question: What about the inhibition [2] of the same molecule?
Answer: The inhibition was 0%.

Question: How did the IC50 [1] turn out when `CC(C)=Cc1cc(/C=C/S(N)(=O)=O)cc(C(=O)c2ccccc2)c1` was run?
Answer: Its IC50 is 0.98 µM.

Question: And the IC50 [5]?
Answer: Its IC50 is 3.6 µM.

Question: For `CCc1cc(/C=C/C(N)=O)cc(C(=O)c2ccccc2)c1`, which IC50 [12] is on record?
Answer: The IC50 was 0.074 µM.

Question: And the IC50 [1]?
Answer: The IC50 was 1.8 µM.

Question: What does the source list for `NS(=O)(=O)/C=C/c1cccc(C(=O)c2ccccc2)c1`?
Answer: inhibition [4]: 37%; inhibition [2]: 0%

Question: Which IC50 [5] does the source give for `NS(=O)(=O)/C=C/c1cc(CO)cc(C(=O)c2ccccc2)c1` here?
Answer: The IC50 was 5.4 µM.
